Source: article PMC9097471, “Development of Selective Phosphatidylinositol 5-Phosphate 4-Kinase γ Inhibitors with a Non-ATP-competitive, Allosteric Binding Mode” (Journal of Medicinal Chemistry, 2022)

Key:
PI5P4Kβ = target: T1, PI5P4Kβ (Homo sapiens, UniProt P78356); parameters: method as in ref 30 (a number printed in a supplementary file, which may have a reference list of its own: not looked up in the article's list); details: 32P-ATP/PI5P incorporation, showed 'small but significant stimulation'; cited from earlier work
T1 sequence (P78356 1-416): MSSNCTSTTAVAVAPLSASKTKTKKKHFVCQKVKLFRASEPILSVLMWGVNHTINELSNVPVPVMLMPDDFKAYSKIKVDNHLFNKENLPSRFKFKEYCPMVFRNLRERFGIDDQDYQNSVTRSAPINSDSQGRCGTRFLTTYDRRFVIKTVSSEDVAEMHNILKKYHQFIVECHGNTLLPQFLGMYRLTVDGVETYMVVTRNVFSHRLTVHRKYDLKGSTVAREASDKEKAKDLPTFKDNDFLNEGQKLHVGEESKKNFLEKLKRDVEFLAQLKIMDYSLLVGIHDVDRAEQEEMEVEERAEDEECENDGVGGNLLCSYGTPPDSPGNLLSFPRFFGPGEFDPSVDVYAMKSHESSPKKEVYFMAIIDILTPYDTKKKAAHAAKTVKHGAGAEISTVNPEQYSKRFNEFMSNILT

MKK2 = MKK2 (Homo sapiens, UniProt P36507); assay: Kinase panel, radiometric 33P filter binding; details: read-out: % activity remaining
ERK1 = ERK1 (Homo sapiens, UniProt P27361); assay: Kinase panel, radiometric 33P filter binding; details: read-out: % activity remaining
ERK2 = ERK2 (Homo sapiens, UniProt P28482); assay: Kinase panel, radiometric 33P filter binding; details: read-out: % activity remaining
From the text: (§1) filter binding assay using 33P-g-ATPat the MRC PPU International Centre for Kinase Profiling, University of

JNK3 = JNK3 (Homo sapiens, UniProt P53779); assay: Kinase panel, radiometric 33P filter binding; details: read-out: % activity remaining
From the text: as §1

RSK1 = RSK1 (Homo sapiens, UniProt Q15418); assay: Kinase panel, radiometric 33P filter binding; details: read-out: % activity remaining
From the text: as §1

ROCK 2 = ROCK 2 (Rattus norvegicus, UniProt Q62868); assay: Kinase panel, radiometric 33P filter binding; details: read-out: % activity remaining
From the text: as §1

PRK2 = PRK2 (Homo sapiens, UniProt Q16513); assay: Kinase panel, radiometric 33P filter binding; details: read-out: % activity remaining
From the text: as §1

PKCz = PKCz (Homo sapiens, UniProt Q05513); assay: Kinase panel, radiometric 33P filter binding; details: read-out: % activity remaining
From the text: as §1

PRAK = PRAK (Homo sapiens, UniProt Q8IW41); assay: Kinase panel, radiometric 33P filter binding; details: read-out: % activity remaining
From the text: as §1

CAMK1 = CAMK1 (Homo sapiens, UniProt Q14012); assay: Kinase panel, radiometric 33P filter binding; details: read-out: % activity remaining
From the text: as §1

CHK1 = CHK1 (Homo sapiens, UniProt O14757); assay: Kinase panel, radiometric 33P filter binding; details: read-out: % activity remaining
From the text: as §1

LKB1 = LKB1 (Homo sapiens, UniProt Q15831); assay: Kinase panel, radiometric 33P filter binding; details: read-out: % activity remaining
From the text: as §1

NUAK1 = NUAK1 (Homo sapiens, UniProt O60285); assay: Kinase panel, radiometric 33P filter binding; details: read-out: % activity remaining
From the text: as §1
Kinase % activity remaining s.d.

SIK2 = SIK2 (Homo sapiens, UniProt Q9H0K1); assay: Kinase panel, radiometric 33P filter binding; details: read-out: % activity remaining
From the text: as §1
Kinase % activity remaining s.d.

CK1γ2 = CK1γ2 (Homo sapiens, UniProt P78368); assay: Kinase panel, radiometric 33P filter binding; details: read-out: % activity remaining
From the text: as §1

NEK6 = NEK6 (Homo sapiens, UniProt Q9HC98); assay: Kinase panel, radiometric 33P filter binding; details: read-out: % activity remaining
From the text: as §1
Kinase % activity remaining s.d.

TBK1 = TBK1 (Homo sapiens, UniProt Q9UHD2); assay: Kinase panel, radiometric 33P filter binding; details: read-out: % activity remaining
From the text: as §1
Kinase % activity remaining s.d.

PIM1 = PIM1 (Homo sapiens, UniProt P11309); assay: Kinase panel, radiometric 33P filter binding; details: read-out: % activity remaining
From the text: as §1
Kinase % activity remaining s.d.

EIF2AK3 = EIF2AK3 (Homo sapiens, UniProt Q9NZJ5); assay: Kinase panel, radiometric 33P filter binding; details: read-out: % activity remaining
From the text: as §1

CLK2 = CLK2 (Homo sapiens, UniProt P49760); assay: Kinase panel, radiometric 33P filter binding; details: read-out: % activity remaining
From the text: as §1

MAP4K5 = MAP4K5 (Homo sapiens, UniProt Q9Y4K4); assay: Kinase panel, radiometric 33P filter binding; details: read-out: % activity remaining
From the text: as §1

TESK1 = TESK1 (Homo sapiens, UniProt Q15569); assay: Kinase panel, radiometric 33P filter binding; details: read-out: % activity remaining
From the text: as §1

TAO1 = TAO1 (Homo sapiens, UniProt Q7L7X3); assay: Kinase panel, radiometric 33P filter binding; details: read-out: % activity remaining
From the text: as §1

IRAK4 = IRAK4 (Homo sapiens, UniProt Q9NWZ3); assay: Kinase panel, radiometric 33P filter binding; details: read-out: % activity remaining
WNK1 = WNK1 (Homo sapiens, UniProt Q9H4A3); assay: Kinase panel, radiometric 33P filter binding; details: read-out: % activity remaining
From the text: as §1

Lck = Lck (Homo sapiens, UniProt P06239); assay: Kinase panel, radiometric 33P filter binding; details: read-out: % activity remaining
BTK = BTK (Homo sapiens, UniProt Q06187); assay: Kinase panel, radiometric 33P filter binding; details: read-out: % activity remaining
JAK3 = JAK3 (Homo sapiens, UniProt P52333); assay: Kinase panel, radiometric 33P filter binding; details: read-out: % activity remaining
TIE2 = TIE2 (Homo sapiens, UniProt Q02763); assay: Kinase panel, radiometric 33P filter binding; details: read-out: % activity remaining
FGF-R1 = FGF-R1 (Homo sapiens, UniProt P11362); assay: Kinase panel, radiometric 33P filter binding; details: read-out: % activity remaining
From the text: as §1

IRR = IRR (Homo sapiens, UniProt P14616); assay: Kinase panel, radiometric 33P filter binding; details: read-out: % activity remaining
From the text: as §1

PRK2, sequence (Q16513 whole entry): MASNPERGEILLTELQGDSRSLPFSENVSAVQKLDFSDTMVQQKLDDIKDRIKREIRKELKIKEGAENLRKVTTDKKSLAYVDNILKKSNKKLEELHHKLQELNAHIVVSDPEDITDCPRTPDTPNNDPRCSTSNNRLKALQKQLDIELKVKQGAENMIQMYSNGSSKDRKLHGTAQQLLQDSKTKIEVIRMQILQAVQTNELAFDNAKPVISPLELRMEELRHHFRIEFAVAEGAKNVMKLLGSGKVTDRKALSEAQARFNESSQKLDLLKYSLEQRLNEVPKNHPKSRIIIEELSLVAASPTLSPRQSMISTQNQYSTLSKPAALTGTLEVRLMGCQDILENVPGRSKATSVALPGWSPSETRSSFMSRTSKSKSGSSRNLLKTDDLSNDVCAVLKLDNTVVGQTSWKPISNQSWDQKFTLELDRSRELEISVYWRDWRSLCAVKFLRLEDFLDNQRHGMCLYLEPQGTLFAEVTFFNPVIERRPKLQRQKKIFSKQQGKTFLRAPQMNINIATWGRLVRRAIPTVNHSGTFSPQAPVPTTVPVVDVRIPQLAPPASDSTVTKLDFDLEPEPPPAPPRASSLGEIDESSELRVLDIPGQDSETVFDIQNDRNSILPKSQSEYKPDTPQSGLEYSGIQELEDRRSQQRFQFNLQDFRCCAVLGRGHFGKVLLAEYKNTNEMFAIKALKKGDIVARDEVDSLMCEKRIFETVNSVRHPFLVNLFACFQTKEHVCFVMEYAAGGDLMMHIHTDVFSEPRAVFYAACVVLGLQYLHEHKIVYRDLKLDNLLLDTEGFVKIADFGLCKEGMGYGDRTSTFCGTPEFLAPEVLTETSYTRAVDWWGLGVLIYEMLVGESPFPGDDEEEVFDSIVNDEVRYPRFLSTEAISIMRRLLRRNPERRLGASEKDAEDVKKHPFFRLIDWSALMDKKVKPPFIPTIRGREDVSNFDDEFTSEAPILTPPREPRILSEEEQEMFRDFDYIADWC
ROCK 2, sequence (Q62868 2-543 limits assumed): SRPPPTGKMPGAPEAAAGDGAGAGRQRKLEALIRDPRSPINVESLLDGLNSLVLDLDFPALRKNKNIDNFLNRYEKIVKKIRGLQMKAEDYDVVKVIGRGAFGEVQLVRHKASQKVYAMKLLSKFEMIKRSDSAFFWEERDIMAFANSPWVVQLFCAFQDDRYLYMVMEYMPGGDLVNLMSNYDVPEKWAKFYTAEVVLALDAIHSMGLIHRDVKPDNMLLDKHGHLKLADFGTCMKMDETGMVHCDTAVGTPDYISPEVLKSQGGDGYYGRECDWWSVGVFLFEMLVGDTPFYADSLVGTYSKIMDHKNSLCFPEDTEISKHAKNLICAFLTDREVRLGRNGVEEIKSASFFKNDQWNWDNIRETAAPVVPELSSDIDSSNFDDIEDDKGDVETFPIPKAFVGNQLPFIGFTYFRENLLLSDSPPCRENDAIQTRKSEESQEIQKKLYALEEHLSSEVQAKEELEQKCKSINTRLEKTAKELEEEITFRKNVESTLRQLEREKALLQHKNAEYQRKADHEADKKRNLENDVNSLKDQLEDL
EIF2AK3, sequence (Q9NZJ5 30-1116): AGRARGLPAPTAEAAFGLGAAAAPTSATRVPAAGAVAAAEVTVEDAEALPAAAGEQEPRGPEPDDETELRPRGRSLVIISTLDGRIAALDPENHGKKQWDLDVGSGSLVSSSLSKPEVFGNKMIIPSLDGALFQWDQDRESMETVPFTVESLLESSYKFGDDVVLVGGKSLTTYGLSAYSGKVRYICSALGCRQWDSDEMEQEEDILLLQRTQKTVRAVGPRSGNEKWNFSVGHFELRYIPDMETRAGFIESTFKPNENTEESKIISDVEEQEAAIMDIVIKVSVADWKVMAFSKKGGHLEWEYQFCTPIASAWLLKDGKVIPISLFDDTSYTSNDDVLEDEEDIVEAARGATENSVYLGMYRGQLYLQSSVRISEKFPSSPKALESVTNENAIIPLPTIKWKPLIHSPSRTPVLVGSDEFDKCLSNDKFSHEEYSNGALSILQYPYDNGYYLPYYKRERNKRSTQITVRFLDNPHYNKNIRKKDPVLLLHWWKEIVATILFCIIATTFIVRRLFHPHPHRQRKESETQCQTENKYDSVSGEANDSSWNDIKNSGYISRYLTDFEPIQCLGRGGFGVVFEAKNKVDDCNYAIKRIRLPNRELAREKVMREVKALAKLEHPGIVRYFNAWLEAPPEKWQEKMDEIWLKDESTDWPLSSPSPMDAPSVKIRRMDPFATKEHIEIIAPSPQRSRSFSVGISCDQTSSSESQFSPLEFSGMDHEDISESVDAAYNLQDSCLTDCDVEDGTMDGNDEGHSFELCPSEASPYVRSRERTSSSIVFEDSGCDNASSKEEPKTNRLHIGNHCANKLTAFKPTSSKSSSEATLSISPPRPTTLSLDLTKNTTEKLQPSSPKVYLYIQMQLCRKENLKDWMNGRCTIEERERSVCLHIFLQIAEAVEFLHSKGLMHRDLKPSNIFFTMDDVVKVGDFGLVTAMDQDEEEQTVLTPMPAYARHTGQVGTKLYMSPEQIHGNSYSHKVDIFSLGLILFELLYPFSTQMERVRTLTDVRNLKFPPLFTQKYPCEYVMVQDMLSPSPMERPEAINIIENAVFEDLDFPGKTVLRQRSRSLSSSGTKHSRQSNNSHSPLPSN
IRAK4, sequence (Q9NWZ3 whole entry): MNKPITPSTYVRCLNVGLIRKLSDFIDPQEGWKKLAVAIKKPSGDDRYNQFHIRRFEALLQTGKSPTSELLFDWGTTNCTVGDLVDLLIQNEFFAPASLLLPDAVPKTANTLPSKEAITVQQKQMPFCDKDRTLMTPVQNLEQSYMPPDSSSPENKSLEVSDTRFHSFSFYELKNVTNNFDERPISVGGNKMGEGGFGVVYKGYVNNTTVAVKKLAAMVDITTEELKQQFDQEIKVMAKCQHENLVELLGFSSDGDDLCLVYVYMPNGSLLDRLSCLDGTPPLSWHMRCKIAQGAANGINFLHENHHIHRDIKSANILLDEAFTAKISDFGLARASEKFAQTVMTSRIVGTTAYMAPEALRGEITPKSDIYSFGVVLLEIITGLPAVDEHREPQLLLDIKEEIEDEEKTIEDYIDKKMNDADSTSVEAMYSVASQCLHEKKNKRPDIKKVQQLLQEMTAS
TIE2, sequence (Q02763 23-1124): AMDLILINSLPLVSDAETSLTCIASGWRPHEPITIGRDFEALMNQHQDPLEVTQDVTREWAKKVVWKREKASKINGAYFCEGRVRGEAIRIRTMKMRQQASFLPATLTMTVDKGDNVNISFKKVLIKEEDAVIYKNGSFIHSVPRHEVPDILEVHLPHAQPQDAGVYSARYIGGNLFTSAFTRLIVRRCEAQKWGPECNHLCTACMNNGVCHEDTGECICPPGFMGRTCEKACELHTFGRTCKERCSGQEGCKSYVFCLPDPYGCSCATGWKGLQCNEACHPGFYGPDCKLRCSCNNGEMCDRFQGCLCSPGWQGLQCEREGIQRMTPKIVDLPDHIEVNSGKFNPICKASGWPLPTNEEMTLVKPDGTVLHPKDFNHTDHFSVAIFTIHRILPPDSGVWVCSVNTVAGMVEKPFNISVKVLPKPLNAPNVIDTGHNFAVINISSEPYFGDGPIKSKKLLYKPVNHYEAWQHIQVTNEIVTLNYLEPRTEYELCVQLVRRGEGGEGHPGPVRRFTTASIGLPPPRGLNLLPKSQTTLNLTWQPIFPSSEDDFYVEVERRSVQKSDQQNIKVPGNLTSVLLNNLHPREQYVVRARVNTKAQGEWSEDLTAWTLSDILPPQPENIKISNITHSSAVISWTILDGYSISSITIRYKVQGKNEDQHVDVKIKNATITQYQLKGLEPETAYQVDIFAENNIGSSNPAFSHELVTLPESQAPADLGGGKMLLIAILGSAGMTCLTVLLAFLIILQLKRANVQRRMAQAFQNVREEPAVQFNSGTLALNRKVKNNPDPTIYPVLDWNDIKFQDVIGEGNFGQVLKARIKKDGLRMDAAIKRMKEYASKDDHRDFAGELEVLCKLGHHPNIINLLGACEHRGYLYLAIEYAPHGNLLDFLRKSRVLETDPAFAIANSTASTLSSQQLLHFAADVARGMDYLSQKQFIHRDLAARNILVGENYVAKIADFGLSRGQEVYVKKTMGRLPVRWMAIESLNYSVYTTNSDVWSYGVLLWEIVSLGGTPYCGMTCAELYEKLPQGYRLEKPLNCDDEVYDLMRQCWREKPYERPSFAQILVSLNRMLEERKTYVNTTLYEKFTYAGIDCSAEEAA
NUAK1, sequence (O60285 whole entry): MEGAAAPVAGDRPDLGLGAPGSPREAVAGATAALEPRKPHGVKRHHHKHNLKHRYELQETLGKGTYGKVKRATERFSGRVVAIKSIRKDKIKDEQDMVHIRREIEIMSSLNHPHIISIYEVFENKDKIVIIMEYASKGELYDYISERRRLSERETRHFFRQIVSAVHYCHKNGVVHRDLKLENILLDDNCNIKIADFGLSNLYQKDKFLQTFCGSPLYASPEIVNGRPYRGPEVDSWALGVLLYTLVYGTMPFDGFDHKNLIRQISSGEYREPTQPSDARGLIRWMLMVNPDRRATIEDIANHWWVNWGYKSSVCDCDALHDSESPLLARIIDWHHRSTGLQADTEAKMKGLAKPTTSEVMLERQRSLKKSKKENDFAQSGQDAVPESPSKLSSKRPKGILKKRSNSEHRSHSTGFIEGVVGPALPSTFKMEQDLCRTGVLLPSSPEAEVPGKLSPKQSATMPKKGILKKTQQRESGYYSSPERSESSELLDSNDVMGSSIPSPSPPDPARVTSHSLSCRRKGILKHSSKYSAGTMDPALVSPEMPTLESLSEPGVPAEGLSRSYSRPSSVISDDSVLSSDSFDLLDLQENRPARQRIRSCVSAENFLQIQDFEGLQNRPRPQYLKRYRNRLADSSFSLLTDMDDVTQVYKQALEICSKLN

In the case of FC(F)(F)c1ccccc1-c1nc(NCc2cccs2)c2ccccc2n1 [Compound 1, NIH-12848, reference compound], the IC50 (PI5P4Kβ) is given as > 100 µM.
Work on CC(C)c1ccccc1-c1nc(NCc2ccccn2)c2c(ccn2C)n1 [Compound 40] yielded a remaining activity at 10 µM (MKK2) of 115%, a remaining activity at 10 µM (ERK1) of 111% and a remaining activity at 10 µM (ERK2) of 98%. The remaining activity at 10 µM (JNK3) was 97%, the remaining activity at 10 µM (RSK1) was 99% and the remaining activity at 10 µM (ROCK 2) was 97%. For the same compound, the remaining activity at 10 µM (PRK2) was 83%, the remaining activity at 10 µM (PKCz) was 111% and the remaining activity at 10 µM (PRAK) was 98%. For the same compound, the remaining activity at 10 µM (CAMK1) was 97%, the remaining activity at 10 µM (CHK1) was 96% and the remaining activity at 10 µM (LKB1) was 94%. It also gave a remaining activity at 10 µM (NUAK1) of 88%, a remaining activity at 10 µM (SIK2) of 100% and a remaining activity at 10 µM (CK1γ2) of 97%. For the same compound, the remaining activity at 10 µM (NEK6) was 120%, the remaining activity at 10 µM (TBK1) was 93% and the remaining activity at 10 µM (PIM1) was 102%. It also gave a remaining activity at 10 µM (EIF2AK3) of 103%, a remaining activity at 10 µM (CLK2) of 94% and a remaining activity at 10 µM (MAP4K5) of 112%. It also gave a remaining activity at 10 µM (TESK1) of 114%, a remaining activity at 10 µM (TAO1) of 115% and a remaining activity at 10 µM (IRAK4) of 114%. For the same compound, the remaining activity at 10 µM (WNK1) was 112%, the remaining activity at 10 µM (Lck) was 102% and the remaining activity at 10 µM (BTK) was 111%. The remaining activity at 10 µM (JAK3) was 97%, the remaining activity at 10 µM (TIE2) was 89% and the remaining activity at 10 µM (FGF-R1) was 92%. The remaining activity at 10 µM (IRR) was 99%.
